Consider 1 molecule from PMC12362796, “Bilirubin Targeting WNK1 to Alleviate NLRP3‐Mediated Neuroinflammation” (Advanced Science, 2025).

One test has as its target T1, full-length hWNK1 (Homo sapiens, UniProt Q9H4A3).
T1 construct: We overexpressed full‐length WNK1 fused with Green Fluorescent Protein (GFP); expressed in transfected cells; host or cells: HEK293T
Kind of test: MicroScale Thermophoresis (MST), EGFP-tagged full-length WNK1 in HEK293T cell lysates. It is filed as binding. The following applies: 15 min incubation, lysates of EGFP-WNK1 expressing HEK293T cells. How it is done: To validate the direct binding of bilirubin to WNK1, we performed a Microscale Thermophoresis (MST) analysis, which assesses the binding capacity of a compound by measuring the movement of proteins over a microscopic temperature gradient.^[ [26], [27] ^] We overexpressed full‐length WNK1 fused with Green Fluorescent Protein (GFP) in HEK‐293 cells, incubated the lysates with bilirubin at varying dilutions, and subjected them to precise MST measurements in capillaries. […] Furthermore, biliverdin, a structurally similar intermediate product generated before bilirubin formation, was used as a control.
(§1) All WNK1 clones were derived from the original untagged hWNK1 cDNA (NM_018979), which was modified and subcloned into the pcDNA3.1, referred to as “full‐length WNK1” throughout this study. Truncated constructs, including 1–190aa, 191–491aa, 1–491aa, and 491–2382aa fragments, were generated by PCR using the full‐length template and subsequently ligated into linearized pcDNA3.1 vectors. WNK2 was obtained from Addgene Plasmid #24569, and WNK3 was obtained from Addgene Plasmid #81723. Both were subjected to base modifications and cloned into pcDNA3.1. The WNK4 clone was derived from hWNK4 cDNA (NM_032387.5), modified, and subcloned into the pCMV3‐C‐GFPSpark vector.
In HEK293T cells, proteins tagged with green fluorescent protein (GFP) were expressed. […]
For orientation: Microscale thermophoresis detects binding through changes in fluorescence in a small temperature gradient.

The target in the next test is T2, WNK1 (191–491) (Homo sapiens, UniProt Q9H4A3).
T2 construct: different lengths of WNK1 truncations (1–491, 1–190, 191–491, 491–2382); expressed in transfected cells; host or cells: HEK293T
Kind of test: MST, EGFP-tagged WNK1 truncation 191–491. It counts as binding. The following applies: WNK1 191–491, 15 min, HEK293T lysates.
Source text: (§2) To further validate these findings, we constructed GFP‐tagged fusion proteins with different lengths of WNK1 truncations (1–491, 1–190, 191–491, 491–2382) based on the WNK1 domains (Figure 3E) and analyzed their binding capacity with bilirubin using MST analysis.^[ [29] ^]
as §1
(§3) In HEK293T cells, proteins tagged with green fluorescent protein (GFP) were expressed. The cells were lysed using the M‐PER Mammalian Protein Extraction Reagent (cat. no. 78505, Thermo Scientific) supplemented with protease inhibitors. Lysates were centrifuged at 12000 × g for 15 min at 4 °C, and the supernatant containing proteins was diluted 10‐fold with 1x PBST. […]

The target of another test is T3, WNK1 (491–2382) (Homo sapiens, UniProt Q9H4A3).
T3 construct: different lengths of WNK1 truncations (1–491, 1–190, 191–491, 491–2382); expressed in transfected cells; host or cells: HEK293T
As to the kind of experiment: MST, EGFP-tagged WNK1 truncation 491–2382. It counts as binding. The following applies: WNK1 491–2382 (non-kinase segment), 15 min, HEK293T lysates.
Source text: as §2, §1, §3

In another test the target is T4, WNK1 (Homo sapiens, UniProt Q9H4A3).
T4 construct: endogenous in cells; host or cells: SH-SY5Y
As to the kind of experiment: CETSA-Western blotting in SH-SY5Y cells. It is filed as cell-based. To be noted: 6 µM in serum-free medium vs DMSO, denaturation at different temperatures, soluble fraction. How it is done: To validate these findings, SH‐SY5Y cells were incubated in a serum‐free medium with bilirubin (6 µM) or an equivalent amount of DMSO as the control, followed by protein denaturation at different temperatures (Figure 1A).
Cells or tissues were lysed by grinding in RIPA buffer (cat. no. PC101; Epizyme Biotech) supplemented with a protease inhibitor cocktail (cat. no. 5872S; Cell Signaling Technology) at 4 °C. The lysate was subsequently centrifuged at 16000 × g for 30 min at 4 °C and the resulting supernatant was collected. The total protein concentration was determined using the Pierce BCA Protein Assay Kit (cat. no. 23 225, Thermo Fisher Scientific). The samples were denatured in a Protein Sample Loading Buffer (cat. no. LT101; Epizyme Biotech) at 95 °C and subjected to SDS‐polyacrylamide gel electrophoresis. Following electrophoresis, the proteins were transferred onto a nitrocellulose membrane (cat. no. HATF00010; Millipore) using a transfer buffer composed of 25 mM Tris, 190 mM glycine, and 20% methanol. Membranes were blocked with blocking buffer for western blotting (cat. no. P0252; Beyotime Biotechnology) at room temperature for 15 min, followed by overnight incubation with the primary antibody at 4 °C. After primary antibody incubation, the membranes were washed and incubated with secondary antibody at room temperature for 1 h. […]

For test [1], the system named is OSR1 and SPAK phosphorylation. As to the kind of experiment: Western blotting of OSR1 and SPAK phosphorylation in hippocampus. It counts as cell-based, mouse. From the text:
To further investigate the impact of bilirubin on WNK1 kinase activity, we generated hippocampal neuron‐specific Wnk1 knockout mice. Given that conventional Wnk1 knockout mice are embryonically lethal, we employed the CRISPR/Cas9 method to create mice carrying the floxed Wnk1 gene. Then we crossed Thy1‐Cre mice with Wnk1^flox/flox mice to generate hippocampal neuron‐specific Wnk1 knockout mice. We examined the effects of bilirubin on the phosphorylation of WNK1 downstream targets, Ste20‐related proline alanine‐rich kinase (SPAK), and oxidative stress‐responsive kinase 1 (OSR1), in the hippocampus of Wnk1^flox/flox and Wnk1^flox/flox,Thy1‐Cre mice. Upon bilirubin treatment, phosphorylation of OSR1 and SPAK was elevated in the hippocampus of Wnk1^flox/flox mice. […] These findings indicate that the effect of bilirubin on OSR1 and SPAK phosphorylation is WNK1‐dependent (Figure 4B). To rule out the potential effects of osmolarity on the phosphorylation of WNK1, OSR1, and SPAK, we measured the osmolarity of different bilirubin concentrations.
Cells or tissues were lysed by grinding in RIPA buffer (cat. no. PC101; Epizyme Biotech) supplemented with a protease inhibitor cocktail (cat. no. 5872S; Cell Signaling Technology) at 4 °C. […] The total protein concentration was determined using the Pierce BCA Protein Assay Kit (cat. no. 23 225, Thermo Fisher Scientific). […]
In general terms: A western blot detects proteins with antibodies after separation by electrophoresis.

Another test addresses UnaG. Details: method as in PMID 23768684. The following applies: modified FABP family member derived from eel; cited from earlier work.

T3 sequence (Q9H4A3 491-2382): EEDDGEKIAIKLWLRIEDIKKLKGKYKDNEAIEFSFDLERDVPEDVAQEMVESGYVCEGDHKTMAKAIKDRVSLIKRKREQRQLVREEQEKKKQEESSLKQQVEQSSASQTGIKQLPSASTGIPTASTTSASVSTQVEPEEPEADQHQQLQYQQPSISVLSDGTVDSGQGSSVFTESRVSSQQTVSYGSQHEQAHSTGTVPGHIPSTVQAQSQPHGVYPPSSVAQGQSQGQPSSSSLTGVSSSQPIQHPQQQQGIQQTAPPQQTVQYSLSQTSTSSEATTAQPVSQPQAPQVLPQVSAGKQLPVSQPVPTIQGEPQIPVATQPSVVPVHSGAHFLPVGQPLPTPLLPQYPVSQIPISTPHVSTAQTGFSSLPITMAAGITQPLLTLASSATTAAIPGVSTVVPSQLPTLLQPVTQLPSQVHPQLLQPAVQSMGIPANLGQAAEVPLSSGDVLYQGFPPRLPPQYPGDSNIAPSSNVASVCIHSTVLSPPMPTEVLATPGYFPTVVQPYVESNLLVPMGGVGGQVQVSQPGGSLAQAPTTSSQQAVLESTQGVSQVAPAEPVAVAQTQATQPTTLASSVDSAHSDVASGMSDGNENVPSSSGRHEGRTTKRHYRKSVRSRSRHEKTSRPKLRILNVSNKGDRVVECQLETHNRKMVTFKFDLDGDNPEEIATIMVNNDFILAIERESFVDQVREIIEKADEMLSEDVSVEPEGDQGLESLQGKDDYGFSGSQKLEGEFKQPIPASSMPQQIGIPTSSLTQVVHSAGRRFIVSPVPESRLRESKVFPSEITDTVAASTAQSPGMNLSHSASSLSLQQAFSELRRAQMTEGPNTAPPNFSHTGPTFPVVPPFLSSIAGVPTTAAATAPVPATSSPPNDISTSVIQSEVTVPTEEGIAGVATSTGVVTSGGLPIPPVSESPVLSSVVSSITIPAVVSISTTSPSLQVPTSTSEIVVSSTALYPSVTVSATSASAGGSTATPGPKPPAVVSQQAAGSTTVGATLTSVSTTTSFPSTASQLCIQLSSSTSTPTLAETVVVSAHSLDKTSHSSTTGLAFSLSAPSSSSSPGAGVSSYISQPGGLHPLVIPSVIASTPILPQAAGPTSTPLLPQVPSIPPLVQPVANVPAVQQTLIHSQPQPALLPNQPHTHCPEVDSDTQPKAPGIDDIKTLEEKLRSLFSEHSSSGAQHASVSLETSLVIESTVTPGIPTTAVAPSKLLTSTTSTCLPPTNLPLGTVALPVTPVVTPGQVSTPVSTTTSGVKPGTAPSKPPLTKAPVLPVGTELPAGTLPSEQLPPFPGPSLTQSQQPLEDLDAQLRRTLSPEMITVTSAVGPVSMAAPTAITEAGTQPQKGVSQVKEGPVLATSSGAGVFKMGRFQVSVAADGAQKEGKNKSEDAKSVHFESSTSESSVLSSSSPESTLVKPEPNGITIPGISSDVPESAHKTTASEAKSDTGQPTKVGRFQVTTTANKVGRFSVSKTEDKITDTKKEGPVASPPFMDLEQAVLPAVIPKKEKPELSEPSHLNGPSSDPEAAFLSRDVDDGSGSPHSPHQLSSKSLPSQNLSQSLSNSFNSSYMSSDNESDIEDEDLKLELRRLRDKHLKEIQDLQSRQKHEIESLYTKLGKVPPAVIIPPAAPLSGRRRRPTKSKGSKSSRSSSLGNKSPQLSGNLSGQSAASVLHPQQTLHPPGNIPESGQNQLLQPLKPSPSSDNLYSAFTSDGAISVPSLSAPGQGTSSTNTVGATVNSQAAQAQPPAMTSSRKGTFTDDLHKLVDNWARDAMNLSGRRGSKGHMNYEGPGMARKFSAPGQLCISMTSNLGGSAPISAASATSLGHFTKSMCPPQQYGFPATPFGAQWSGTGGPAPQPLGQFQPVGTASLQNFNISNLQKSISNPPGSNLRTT
T2 sequence (Q9H4A3 191-491): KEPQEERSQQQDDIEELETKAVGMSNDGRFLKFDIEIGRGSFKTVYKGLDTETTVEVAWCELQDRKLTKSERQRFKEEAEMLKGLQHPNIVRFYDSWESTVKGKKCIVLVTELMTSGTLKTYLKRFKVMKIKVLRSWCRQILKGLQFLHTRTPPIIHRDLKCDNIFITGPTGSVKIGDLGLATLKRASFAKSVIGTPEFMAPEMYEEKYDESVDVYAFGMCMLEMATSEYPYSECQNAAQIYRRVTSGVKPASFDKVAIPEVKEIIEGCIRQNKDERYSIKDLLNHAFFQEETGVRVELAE
T1 sequence (Q9H4A3 whole entry, the tested form may be a part): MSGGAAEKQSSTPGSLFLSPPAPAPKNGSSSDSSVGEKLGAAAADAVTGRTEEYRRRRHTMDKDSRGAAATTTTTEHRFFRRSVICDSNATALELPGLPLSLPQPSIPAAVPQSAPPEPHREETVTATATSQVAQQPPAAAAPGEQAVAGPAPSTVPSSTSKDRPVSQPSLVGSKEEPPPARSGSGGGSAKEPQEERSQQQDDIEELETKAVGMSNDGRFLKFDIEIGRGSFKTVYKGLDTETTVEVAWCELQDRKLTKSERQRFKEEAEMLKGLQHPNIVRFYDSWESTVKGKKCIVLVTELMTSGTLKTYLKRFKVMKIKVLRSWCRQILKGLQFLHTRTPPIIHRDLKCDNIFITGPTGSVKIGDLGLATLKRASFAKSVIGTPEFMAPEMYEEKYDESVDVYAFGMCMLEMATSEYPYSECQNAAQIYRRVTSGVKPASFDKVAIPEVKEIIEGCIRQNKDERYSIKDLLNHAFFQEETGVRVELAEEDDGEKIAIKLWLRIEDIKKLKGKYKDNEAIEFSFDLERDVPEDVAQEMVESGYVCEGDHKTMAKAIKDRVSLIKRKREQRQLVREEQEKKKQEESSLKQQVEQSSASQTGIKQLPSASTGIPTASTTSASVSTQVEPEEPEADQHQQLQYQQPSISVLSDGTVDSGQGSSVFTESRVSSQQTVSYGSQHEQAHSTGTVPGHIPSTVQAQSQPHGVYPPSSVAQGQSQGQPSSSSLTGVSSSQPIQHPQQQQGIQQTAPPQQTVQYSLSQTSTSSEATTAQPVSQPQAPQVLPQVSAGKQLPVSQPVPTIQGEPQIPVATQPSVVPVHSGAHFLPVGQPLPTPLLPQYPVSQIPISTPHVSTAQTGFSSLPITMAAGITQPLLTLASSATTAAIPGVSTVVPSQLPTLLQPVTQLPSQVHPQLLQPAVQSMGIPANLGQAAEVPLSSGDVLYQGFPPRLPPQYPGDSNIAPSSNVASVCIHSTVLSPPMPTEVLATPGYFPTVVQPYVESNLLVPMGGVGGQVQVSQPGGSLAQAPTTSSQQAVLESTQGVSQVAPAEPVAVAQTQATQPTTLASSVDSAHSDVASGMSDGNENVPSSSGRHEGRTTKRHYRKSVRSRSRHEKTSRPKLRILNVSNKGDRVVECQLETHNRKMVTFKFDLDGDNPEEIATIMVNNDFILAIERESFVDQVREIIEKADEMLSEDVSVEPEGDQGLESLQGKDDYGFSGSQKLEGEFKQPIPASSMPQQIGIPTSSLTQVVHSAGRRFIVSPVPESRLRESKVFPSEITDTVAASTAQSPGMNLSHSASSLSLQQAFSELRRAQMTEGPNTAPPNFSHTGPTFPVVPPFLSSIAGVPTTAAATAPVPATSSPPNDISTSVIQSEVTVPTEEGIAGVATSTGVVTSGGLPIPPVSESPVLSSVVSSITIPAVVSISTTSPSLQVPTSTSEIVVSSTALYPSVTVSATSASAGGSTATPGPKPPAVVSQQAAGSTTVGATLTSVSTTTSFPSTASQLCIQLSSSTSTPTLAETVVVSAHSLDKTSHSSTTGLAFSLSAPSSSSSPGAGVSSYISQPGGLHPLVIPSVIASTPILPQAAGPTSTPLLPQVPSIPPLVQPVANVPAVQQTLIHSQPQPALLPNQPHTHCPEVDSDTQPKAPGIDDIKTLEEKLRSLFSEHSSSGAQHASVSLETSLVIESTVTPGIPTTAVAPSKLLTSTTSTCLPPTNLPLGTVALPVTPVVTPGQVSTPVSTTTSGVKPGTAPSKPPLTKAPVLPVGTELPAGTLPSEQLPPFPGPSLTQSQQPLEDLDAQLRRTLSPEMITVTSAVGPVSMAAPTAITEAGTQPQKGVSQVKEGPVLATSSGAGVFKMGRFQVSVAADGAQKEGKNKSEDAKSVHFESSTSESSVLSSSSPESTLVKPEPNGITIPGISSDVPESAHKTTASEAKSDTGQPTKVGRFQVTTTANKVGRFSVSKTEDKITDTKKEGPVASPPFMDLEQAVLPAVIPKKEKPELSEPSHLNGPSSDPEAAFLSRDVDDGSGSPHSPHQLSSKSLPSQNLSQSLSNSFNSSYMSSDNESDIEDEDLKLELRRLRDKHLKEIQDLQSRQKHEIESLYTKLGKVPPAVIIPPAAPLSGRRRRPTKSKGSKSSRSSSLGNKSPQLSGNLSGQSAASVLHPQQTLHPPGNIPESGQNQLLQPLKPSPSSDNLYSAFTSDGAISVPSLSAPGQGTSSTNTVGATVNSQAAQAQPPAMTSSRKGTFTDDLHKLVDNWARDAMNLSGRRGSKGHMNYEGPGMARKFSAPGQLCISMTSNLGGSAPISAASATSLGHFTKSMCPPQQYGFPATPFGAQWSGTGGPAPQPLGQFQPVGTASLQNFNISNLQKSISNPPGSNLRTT
T4 sequence (Q9H4A3 whole entry): as the sequence (Q9H4A3 whole entry, the tested form may be a part) above

As a reminder, the Kd is a measure of binding affinity in units of concentration. Consider `C=CC1=C(C)/C(=C/c2[nH]c(Cc3[nH]c(/C=C4\NC(=O)C(C)=C4C=C)c(C)c3CCC(=O)O)c(CCC(=O)O)c2C)NC1=O` [bilirubin, Bilirubin], for which the Kd at full-length hWNK1 was 67.2 nM; at WNK1 (191–491), 28 nM; on WNK1 (491–2382), 3190 nM; at UnaG, 0.098 nM. Also, the “thermal stability of WNK1” value at WNK1 is recorded as “enhanced thermal stability”. Moreover, the “phosphorylation of OSR1 and SPAK” value in test [1] (hippocampus of Wnk1flox/flox mice) is on record as “elevated”; in test [1] (hippocampus of Wnk1flox/flox,Thy1-Cre mice), “minimal impact”.
